Laboratory results published in patent US8323896B2, “Epidermal growth factor (EGF) expression and/or polymorphisms thereof for predicting the risk of developing cancer” (The General Hospital Corporation, priority 2007, dated 2012).
Entries after “also recorded” stand apart in the source; their conditions may differ.

Experiments:
[1] = system: THLE-5B cells; test: Anchorage-independent transformation (over-agar) assay in THLE-5B cells; format: cell-based, human; conditions: 10 ng/ml EGF, inhibitor 0.01 μM to 1.0 μM, colonies counted after 14 days
Experimental: Cells and Culture Conditions. The normal human liver epithelial cell line, THLE-5B, was kindly provided by Curtis Harris (NCI, National Institutes of Health, Bethesda, Md.). THLE-5B cells were propagated in DMEM/F-12 (1:1; Invitrogen, Carlsbad, Calif.) with 10% fetal bovine serum (MediaTech CellGro, Herndon, Va.), that was supplemented with 100 units/ml penicillin, […] streptomycin (both from Invitrogen), 10 μg/ml insulin, 10 μg/ml transferrin and 10 ng/ml selenium (ITS; Lonza, Walkersville, Md.). Primary human hepatocytes were isolated as described before and cultured in HMM media (Lonza). Cells were maintained at 37° C. in a humidified incubator with 5% CO2 in air.
Chemicals. Stock solutions of AG1478 (Invitrogen), erlotinib (Tarceva™; Genentech, South San Francisco, Calif.) and gefitinib (Iressa™; AstraZeneca, Wilmington, Del.) were prepared in DMSO and stored at −20° C. EGF (Sigma, St. Louis, Mo.) stock solution was prepared in 10 mM acetic acid and diluted in PBS.
Anchorage-Independent Transformation Assay. Because cells suspended in soft agar cannot be easily recovered, the inventors used the previously described over-agar assay which allows for the analysis of molecular events associated with tumor promoter-induced cell transformation under anchorage-independent conditions. Briefly, 1×10^4 THLE-5B cells or isolated human hepatocytes were plated onto 0.5% BME agar containing the indicated concentrations of EGF and inhibitors. The plates were cultured for 14 days, after which colonies of transformed cells were counted using a microscope. The results represent one experiment and are presented as the mean±standard deviation of colony counts made by three separate investigators. The experiments were repeated twice to ensure qualitatively similar results.

[2] = system: THLE-5B cells; test: Cell growth (MTT) assay in THLE-5B cells; format: cell-based, human; conditions: inhibitor 0.01-1 μM; 72 h
Experimental: Cell Growth Assay. Briefly, THLE-5B cells were plated in triplicate at a density of 4×10^4 cells/ml in a 24-well plate. After 24 h, cells were washed once with PBS and medium containing inhibitors at the indicated concentrations or vehicle control was added. After 72 h, the effects of each inhibitor on growth of the cells was measured by colorimetric 3-(4,5-dimethylthiazol-2-yl)-2,5-diphenyltetrazolium bromide (MTT; Sigma) assay. The absorbance at 562 nm was measured using a spectrophotometric plate reader (Emax; Molecular Devices) and the experiment was repeated twice to ensure qualitatively similar results for each inhibitor.

[3] = system: HCC nodules; conditions: rat, DEN-induced cirrhosis; treatment during weeks 12-18; cited from earlier work

Question: What does the source list for `COc1cc2ncnc(Nc3cccc(Cl)c3)c2cc1OC` [AG1478, 4-(3-Chloroanillino)-6,7-dimethoxyquinazoline]?
Answer: EGF mediated anchorage-independent transformation of THLE-5B cells [1]: prevents EGF mediated anchorage-independent transformation; also recorded: inhibited; cytotoxicity to THLE-5B cells as determined by MTT [2]: not cytotoxic

Question: Which “EGF mediated anchorage-independent transformation of THLE-5B cells” value [1] does the source give for `C#Cc1cccc(Nc2ncnc3cc(OCCOC)c(OCCOC)cc23)c1` [Erlotinib] here?
Answer: The value was “prevents EGF mediated anchorage-independent transformation; also recorded: inhibited”.

Question: What about the “cytotoxicity to THLE-5B cells as determined by MTT” value [2] of the same compound?
Answer: The value was “not cytotoxic”.

Question: Which “EGF mediated anchorage-independent transformation of THLE-5B cells” value [1] does the source give for `COc1cc2ncnc(Nc3ccc(F)c(Cl)c3)c2cc1OCCCN1CCOCC1` [Gefitinib] here?
Answer: The value was “inhibited”.

Question: What about the “EGF mediated anchorage-independent transformation of THLE-5B cells” value ([1]; listed as Gefitnib) of the same compound?
Answer: The value was “prevents EGF mediated anchorage-independent transformation”.

Question: And the “cytotoxicity to THLE-5B cells as determined by MTT” value [2]?
Answer: Its value is “not cytotoxic”.

Question: What about the “formation of HCC nodules” value [3] of the same compound?
Answer: Its value is “significantly reduced the formation of HCC nodules; also recorded: significantly reduced the formation of hepatocellular carcinoma nodules”.
